Assay results: US8778871B2 (Takeda Pharmaceutical Company Limited, priority 2004, dated 2014)
Starred links: 1 amine or outer side, 2 acyl side, 3 side chain; linkers in the order of their positions; H or OH if unused. Non-standard residues stand in square brackets, D forms with d. Residues, ends and D or L forms follow the SMILES beside them. *: point of attachment. X11 = NC(=O)C[C@@H](CN([C@@H](Cc1c[nH]c2ccccc12)C(=O)[*:2])[*:1])N[*:3]; X1 = NC(=O)C[C@@H](C(=O)[*:2])N(C[C@@H](N)Cc1ccc(O)cc1)[*:1]; NαAmidinoTrp = N=C(N)N[C@@H](Cc1c[nH]c2ccccc12)C(=O)*; Acetyl(2-(4-imidazolyl)) = O=C(Cc1c[nH]cn1)*; Phe(4-F) = N[C@@H](Cc1ccc(F)cc1)C(=O)O; Cyclohexanecarbonyl = O=C(C1CCCCC1)*; Arg(Me) = CNC(=N)NCCC[C@H](N)C(=O)O; 2Pal = N[C@@H](Cc1ccccn1)C(=O)O; 4Pal = N[C@@H](Cc1ccncc1)C(=O)O; Tos = Cc1ccc(S(=O)(=O)*)cc1; Bz = O=C(c1ccccc1)*; azaGly = NNC(=O)O

Biological target: T1, hOT7T175 (Homo sapiens, UniProt Q969F8)
T1 construct: expressed in transfected cells
Test: Intracellular Ca ion level-increasing activity using FLIPR (180 seconds; specific activity to Metastin (1-54))
Format: cell-based
Conditions: hOT7T175/CHO, change in intracellular calcium ion level for 180 seconds, Tables 21-23
Protocol: In accordance with the method described in JPA 2000-312590, the intracellular Ca ion level-increasing activity was measured using FLIPR. […]
The intracellular Ca ion level-increasing activity of the synthetic peptide in hOT7T175/CHO was determined using FLIPR (Molecular Devices, Inc.).
hOT7T175/CHO was subcultured in DMEM supplemented with 10% dialyzed fetal bovine serum (hereinafter abbreviated as dFBS) and provided for the experiment (hereinafter abbreviated as 10% dFBS/DMEM). The hOT7T175/CHO was suspended in 10% dFBS-DMEM in 15×10^4 cells/ml. The suspension was inoculated on a 96-well plate for FLIPR (Black Plate Clear Bottom, Coster, Inc.) at 200 μl each (3.0×10^4 cells/200 μl), followed by incubation at 37° C. overnight in a 5% CO2 incubator. The cells thus incubated were used (hereinafter simply referred to as the cell plate). Then, 21 ml of HANKS/HBSS (9.8 g of HANKS', 0.35 g of sodium hydrogencarbonate, 20 ml of 1M HEPES; after adjusting the pH to 7.4 with 1N sodium hydroxide, the mixture was subjected to sterilization through a filter), 210 μl of […] Probenecid and 210 μl of fetal bovine serum (FBS) were mixed (HANKS/HBSS-Probenecid-FBS).
Furthermore, 2 vials of Fluo3-AM (50 μg/vial) were dissolved in 21 μL of dimethylsulfoxide and 21 μL of 20% Pluronic acid. The resulting solution was added to and mixed with 10 ml of HANKS/HBSS-Probenecid-FBS described above. After the culture medium was removed, the mixture was dispensed onto the cell plate in 100 μl each/well, followed by incubation at 37° C. for an hour in a 5% CO2 incubator (pigment loading). The peptide was dissolved in dimethylsulfoxide in 1×10^−3 M. The peptide solution was diluted with HANKS'/HBSS containing 2.5 mM Probenecid and 0.2% BSA. The dilution was transferred to a 96-well plate for FLIPR (V-Bottom plate, Coster, Inc.) (hereinafter referred to as a sample plate). After completion of the pigment loading onto the cell plate, the cell plate washed 4 times with wash buffer, which was obtained by adding 2.5 mM Probenecid to HANKS'/HBSS, using a plate washer to leave 100 μL of wash buffer after the washing. The cell plate and the sample plate were set in FLIPR and 0.05 ml of a sample from the sample plate was automatically transferred to the cell plate with the FLIPR device to promote the cell response. A change in intracellular calcium ion level for 180 seconds was measured with passage of time.

T1 sequence (Q969F8 whole entry L364H): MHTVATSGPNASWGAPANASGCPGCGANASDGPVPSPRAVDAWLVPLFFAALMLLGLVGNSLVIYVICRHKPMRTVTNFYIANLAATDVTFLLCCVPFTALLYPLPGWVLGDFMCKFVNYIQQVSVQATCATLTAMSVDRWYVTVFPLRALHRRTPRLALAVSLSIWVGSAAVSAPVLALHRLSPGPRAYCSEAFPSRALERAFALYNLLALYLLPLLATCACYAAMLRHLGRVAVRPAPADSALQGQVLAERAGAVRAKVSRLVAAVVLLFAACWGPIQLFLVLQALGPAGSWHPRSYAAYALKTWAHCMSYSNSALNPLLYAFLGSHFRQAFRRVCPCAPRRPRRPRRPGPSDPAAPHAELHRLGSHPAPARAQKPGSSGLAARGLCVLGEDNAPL

Row | Compound | intracellular Ca ion level-increasing activity [specific activity to Metastin (1-54)]
1 | 4-Pyridinecarbonyl-Phe-AzaGly-Leu-Arg(Me)-Phe-NH2 [Compound No. 471] | 1
2 | CC(C)C[C@H](NC(=O)CNC(=O)[C@H](Cc1ccccc1)NC(=O)[C@H](CO)NC(=O)[C@H](CC(N)=O)NC(=O)[C@H](Cc1c[nH]c2ccccc12)NC[C@H](CC(N)=O)NC(=O)[C@@H](N)Cc1ccc(O)cc1)C(=O)N[C@@H](CCCNC(=N)N)C(=O)N[C@@H](Cc1ccccc1)C(N)=O [Compound No. 295] (H-[X11](Tyr)NSFGLRF-NH2) | 1
3 | D-Tyr-D-Pya(4)-Asn-Ser-Phe-AzaGly-Leu-Har(Me)-Phe-NH2 [Compound No. 489] | ½
4 | Pyrazinecarbonyl-Phe-AzaGly-Leu-Arg(Me)-Trp-NH2 [Compound No. 446] | 1
5 | D-Tyr-Pya(4)-Phe-AzaGly-Leu-Arg(Me)-Trp-NH2 [Compound No. 495] | ⅙
6 | CNC(=N)NCCC[C@H](NC(=O)[C@H](CC(C)C)NC(=O)CNC(=O)[C@H](Cc1ccccn1)NC(=O)[C@H](CO)NC(=O)[C@H](CC(N)=O)NC(=O)[C@H](Cc1c[nH]c2ccccc12)NC(=O)[C@H](CC(N)=O)NC(=O)[C@H](N)Cc1ccc(O)cc1)C(=O)N[C@@H](Cc1ccccc1)C(N)=O [Compound No. 281, D-Tyr-Asn-Trp-Asn-Ser-Pya(2)-Gly-Leu-Arg(Me)-Phe-NH2] (H-[dY]NWNS[2Pal]GL[Arg(Me)]F-NH2) | ½
7 | Dibenzylaminocarbamoylacetyl-Leu-Arg(Me)-Trp-NH2 [Compound No. 434] | 1/10
8 | Trifluoroacetyl-Phe-AzaGly-Leu-Arg(Me)-Trp-NH2 [Compound No. 448] | 3
9 | Bz-FGLRF-NH2 [Compound No. 351] | ½
10 | CNC(=N)NCCC[C@H](NC(=O)[C@H](CC(C)C)NC(=O)NNC(=O)[C@H](Cc1ccccc1)NC(=O)[C@H](CO)NC(=O)[C@H](CC(N)=O)NC(=O)C1CCCCC1)C(=O)N[C@@H](Cc1ccccc1)C(N)=O [Compound No. 278, Cyclohexanecarbonyl-Asn-Ser-Phe-AzaGly-Leu-Arg(Me)-Phe-NH2] (Cyclohexanecarbonyl-NSF[azaGly]L[Arg(Me)]F-NH2) | 2
11 | Benzyl-Phe-AzaGly-Leu-Arg(Me)-Trp-NH2 [Compound No. 450] | ⅓
12 | CNC(=N)NCCC[C@H](NC(=O)[C@H](CC(C)C)NC(=O)NNC(=O)[C@H](Cc1ccccc1)NC(=O)[C@H](CO)NC(=O)[C@H](CC(N)=O)NC(=O)[C@H](Cc1c[nH]c2ccccc12)NC(C)=O)C(=O)N[C@@H](Cc1ccccc1)C(N)=O [Compound No. 272, Acetyl-Trp-Asn-Ser-Phe-AzaGly-Leu-Arg(Me)-Phe-NH2] (Ac-WNSF[azaGly]L[Arg(Me)]F-NH2) | 2
13 | Tos-F[azaGly]L[Arg(Me)]F-NH2 [Compound No. 349] | ⅕
14 | 4-Pyridinecarbonyl-Phe-AzaGly-Leu-Har-Trp-NH2 [Compound No. 478] | ⅓
15 | 2-Methylnicotinoyl-Phe-AzaGly-Leu-Arg(Me)-Trp-NH2 [Compound No. 443] | ½
16 | CNC(=N)NCCC[C@H](NC(=O)[C@H](CC(C)C)NC(=O)NNC(=O)[C@H](Cc1ccccc1)NC(=O)[C@H](CO)NC(=O)[C@H](CC(N)=O)NC(=O)[C@H](Cc1ccncc1)NC(=O)[C@@H](CC(N)=O)NC(=O)[C@H](N)Cc1ccc(O)cc1)C(=O)N[C@@H](Cc1ccc(F)cc1)C(N)=O [Compound No. 317, D-Tyr-D-Asn-Pya(4)-Asn-Ser-Phe-AzaGly-Leu-Arg(Me)-Phe(4F)-NH2] (H-[dY][dN][4Pal]NSF[azaGly]L[Arg(Me)][Phe(4-F)]-NH2) | 1
17 | 1-Oxo-isochroman-3-carbonyl-AzaGly-Leu-Arg(Me)-Trp-NH2 [Compound No. 408] | ⅓
18 | (S)-1-(Quinolin-8-yl-carbamoyl)-4-thiapentylcarbamoyl-D-Tyr-Asn-Trp-Asn-Ser-Phe-Gly-Leu-Arg(Me)-Phe-NH2 [Compound No. 400] | 1
19 | 4-Pyridinecarbonyl-Phe-AzaGly-Val-Arg(Me)-Trp-NH2 [Compound No. 460] | ⅓
20 | CNC(=N)NCCC[C@H](NC(=O)[C@H](CC(C)C)NC(=O)NNC(=O)[C@H](Cc1ccccc1)NC(=O)[C@H](CO)NC(=O)[C@H](CC(N)=O)NC(=O)[C@@H](Cc1c[nH]c2ccccc12)NC(=O)[C@H](CC(N)=O)NC[C@@H](N)Cc1ccc(O)cc1)C(=O)N[C@@H](Cc1ccccc1)C(N)=O [Compound No. 300, TyrΨ(CH2NH)Asn-D-Trp-Asn-Ser-Phe-AzaGly-Leu-Arg(Me)-Phe-NH2] (H-[X1][dW]NSF[azaGly]L[Arg(Me)]F-NH2) | 5
21 | CNC(=N)NCCC[C@H](NC(=O)[C@H](CC(C)C)NC(=O)NNC(=O)[C@H](Cc1ccccc1)NC(=O)[C@H](CO)NC(=O)[C@H](CC(N)=O)NC(=O)[C@H](Cc1ccncc1)NC(=O)[C@@H](CC(N)=O)NC(=O)[C@@H](N)Cc1ccc(O)cc1)C(=O)N[C@@H](Cc1ccccc1)C(N)=O [Compound No. 304, Tyr-D-Asn-Pya(4)-Asn-Ser-Phe-AzaGly-Leu-Arg(Me)-Phe-NH2] (H-Y[dN][4Pal]NSF[azaGly]L[Arg(Me)]F-NH2) | 3
22 | CNC(=N)NCCC[C@H](NC(=O)[C@H](CC(C)C)NC(=O)NNC(=O)[C@H](Cc1ccccc1)NC(=O)[C@H](CO)NC(=O)[C@H](CC(N)=O)NC(=O)Cc1c[nH]cn1)C(=O)N[C@@H](Cc1ccccc1)C(N)=O [Compound No. 323, 4-Imidazoleacetyl-Asn-Ser-Phe-AzaGly-Leu-Arg(Me)-Phe-NH2] ({Acetyl(2-(4-imidazolyl))}-NSF[azaGly]L[Arg(Me)]F-NH2) | 1
23 | CNC(=N)NCCC[C@H](NC(=O)[C@H](CC(C)C)NC(=O)NNC(=O)[C@H](Cc1ccccc1)NC(=O)[C@H](CO)NC(=O)[C@H](CC(N)=O)NC(=O)[C@H](Cc1ccccc1)NC(=O)[C@@H](CC(N)=O)NC(=O)[C@H](N)Cc1ccc(O)cc1)C(=O)N[C@@H](Cc1ccccc1)C(N)=O [Compound No. 257, D-Tyr-D-Asn-Phe-Asn-Ser-Phe-AzaGly-Leu-Arg(Me)-Phe-NH2] (H-[dY][dN]FNSF[azaGly]L[Arg(Me)]F-NH2) | 3
24 | 2-Hydroxyisobutyryl-Phe-AzaGly-Leu-Arg(Me)-Trp-NH2 [Compound No. 453] | 1
25 | CNC(=N)NCCC[C@H](NC(=O)[C@H](CC(C)C)NC(=O)NNC(=O)[C@H](Cc1ccccc1)NC(=O)[C@H](CO)NC(=O)[C@H](CC(N)=O)NC(=O)[C@H](Cc1c[nH]c2ccccc12)NC(=N)N)C(=O)N[C@@H](Cc1ccccc1)C(N)=O [Compound No. 273, Amidino-Trp-Asn-Ser-Phe-AzaGly-Leu-Arg(Me)-Phe-NH2] (NαAmidinoTrp-NSF[azaGly]L[Arg(Me)]F-NH2) | 5
26 | n-Hexanoyl-Phe-AzaGly-Leu-Arg(Me)-Phe-NH2 [Compound No. 347] | ½
27 | Tos-Phe-AzaGly-Leu-Arg(Me)-Trp-NH2 [Compound No. 368] | ½
28 | Propionyl-Phe-AzaGly-Leu-Arg(Me)-Trp-NH2 [Compound No. 437] | 2
29 | (2S)-2-acetoxy-3-phenylpropionyl-AzaGly-Leu-Arg(Me)-Trp-NH2 [Compound No. 373] | 2
30 | Bz-A[azaGly]L[Arg(Me)]W-NH2 [Compound No. 392] | ⅕
